Consider four compounds from patent US9400283B2, “In vitro method using human skin for evaluating the influence of ABC transporters” (GALDERMA RESEARCH & DEVELOPMENT, priority 2011, dated 2016).

The test system of series [1] is human skin samples. The series can be described thus: Cutaneous distribution of LTC4 by autoradiography of skin sections. The series is classed as in vitro ADME. As for the experimental part:
The distribution of Vinblastine in the skin was analyzed by autoradiography. Skin samples were placed in a tissue holder and freeze-mounted in cryomount embedding medium. The frozen blocks were sectioned into slices 8-10 μm thick, perpendicular to the epidermal surface in a cryomicrotome (Thermo Electron). The sections were collected on glass slides and dried. Cryosections were placed on a Fuji imaging plate type Bas-III (20×40 cm) in a Fujix Bas cassette 2040 during 24 hours to 5 days. The exposed plate was scanned with a Bio-Imaging analyzer (Fujix BAS 2000). The scanned images were analyzed using TINA software.
The distribution of the LTC4 in the skin was analyzed by autoradiography. The experimental conditions are identical to those described previously for vinblastine.

Series [2] concerns human skin samples. Description: In vitro cutaneous absorption of LTC4 (receptor fluid, liquid scintillation counting). Format: in vitro ADME. The settings on record: 68.5 nM LTC4 10 μL/cm2, 6 hours. As for the experimental part: Tritium labeled LTC4 was used. The concentration of the LTC4 solution used was 68.5 nM (0.01 mCi/mL).
At the end of the period of treatment with the inhibitor, the skin samples, both the control samples and those treated with the inhibitor, were treated with the LTC4 solution. […] The duration of the treatment with LTC4 was 6 hours.
The in vitro LTC4 skin absorption experiments were performed with fresh skin samples originating from three different donors. The experiments were performed in 6-well Transwell plates, with a 1 cm^2 area of treated skin and receptor fluid volumes of 1.5 mL. The treatment volume for the skin surface was 10 μL, corresponding to 0.69 […] and 222 000 dpm. Three different experiments were performed with skin samples originating from three different donors. In each experiment, each condition was performed in triplicate (N=9 in total).

The subject of series [3] is human skin samples. The series can be described thus: Skin distribution of Rhodamine 123 by epifluorescence microscopy. The series is classed as in vitro ADME. The settings on record: skin samples treated with Verapamil, data not shown.
The test system of series [4] is ex vivo human skin samples. Description: In vitro skin absorption of vinblastine (receptor fluid, liquid scintillation counting). The settings on record: for vinblastine skin absorption (amount in receptor fluid): 16 hours.

Turning to `CCCCC/C=C\C\C=C/C=C/C=C/[C@@H](SC[C@H](NC(=O)CC[C@H](N)C(=O)O)C(=O)NCC(=O)O)[C@@H](O)CCCC(=O)O` [LTC4, leukotriene-C4], the “cutaneous distribution of LTC4 (autoradiography signal)” value in the series with human skin samples [1] (skin sections without treatment with the inhibitor) is given as “a radioactive signal related to LTC4 is observed in the uppermost part of the skin section corresponding to the epidermis”. For the same compound, the “cutaneous absorption of LTC4, share of the applied dose” value with human skin samples [2] was “about 1.7 % of the applied dose”.

With `CN(C)C(=O)CCSC(SCCC(=O)O)c1cccc(/C=C/c2ccc3ccc(Cl)cc3n2)c1` (stereo not shown) [MK571], the “effect of MK571 on cutaneous distribution of LTC4 (autoradiography signal)” value in the series with human skin samples [1] (skin treated with the inhibitor MK571) is “appreciable increase in the intensity of the signal related to LTC4”.

In the case of `COc1ccc(CCN(C)CCCC(C#N)(c2ccc(OC)c(OC)c2)C(C)C)cc1OC` (stereo not shown) [verapamil, Verapamil], the “effect of Verapamil on Rhodamine 123 fluorescence intensity in skin sections” value in the series on human skin samples [3] was “No difference in fluorescence intensity”.

On to `CC[C@]1(O)C[C@@H]2CN(CCc3c([nH]c4ccccc34)[C@@](C(=O)OC)(c3cc4c(cc3OC)N(C)[C@H]3[C@@](O)(C(=O)OC)[C@H](OC(C)=O)[C@]5(CC)C=CCN6CC[C@]43[C@@H]65)C2)C1` [vinblastine, Vinblastine], for which the “vinblastine skin absorption (amount in receptor fluid)” value in series [4] (dermarolled skin (32 roller passages)) stood at 0.6 nmol; in series [4] (intact human skin) it was 0.003 nmol; in series [4] (tape stripped skin (30 stripes)), 0.07 nmol. The “increase of vinblastine skin absorption by skin perforation by dermaroller” value in series [4] (dermarolled versus intact skin) is given as “about 200 times”. For the same compound, in series [4] (intact human skin, 2.5 mM [3H]-vinblastine 10 μL/cm2, 16 hours, receptor fluid), the “vinblastine skin absorption, share of the applied dose” value is recorded as 0.001 % of the applied dose. Besides, the “increase of vinblastine skin absorption by tape stripping” value in series [4] (stripped versus intact skin) was “about 20 times”.
